Entries after “also recorded” stand apart in the source; their conditions may differ.
Key:
[1] = Acute oral toxicity, single administration, 14 days observation; details: in vivo, 2% carboxymethylcellulose with 5% Tween 80
Protocol: Animal trials were performed with mice and male rats free from specific pathogenic organisms, subject to a preliminary water diet for 18 hours. All animals were kept under observation during 14 days after a single oral administration, in order to detect any eventuality of toxic after effects. The median lethal dose LD50 and its confidence limits were computed by the graphic method of J. T. Litchfield and F. Wilcoxon.
Oral administration was used throughout the experiments, with an aqueous solution of 2% carboxymethylcellulose treated with Tween®80 (Difco or ICI) at 5% as dispersing agent.

[2] = system: major depressive disorder; assay: Clinical study of antidepressant effect (17 HDRS items), major depressive disorder; type: in vivo, human
Protocol: Experimental verification of the clinical effects of 5-MOP on depressive patients was performed on 24 physically sane subjects (11 men and 13 women), suffering from a major depressive disorder.
Chosen patients afflicted with a major depressive disorder according to DSM III were given no treatment 4 days prior to the experiment, except for 5 mg nitrazepam in the evening.
The patients were divided into two groups. The first group was treated with a single daily dose of 40 mg 5-MOP during a week, administered orally at 9:00 p.m. The second group was given placebos, double blindly, under identical conditions.
To prevent any parallel effects due to the photosensitive properties of 5-MOP, patients were not exposed to ultraviolet (UV) radiation during nine hours following 5-MOP intake (corresponding to their sleep period).
After a week of treatment with 5-methoxypsoralen or placebos, clinical results were established for each patient group, and compared using the Wilcoxon test (W) within groups and the Mann-Whitney test (U) between groups.

[3] = system: plasma melatonin; details: cited from earlier work
[4] = system: rabbits; assay: Long-term toxicity, ingestive intake; type: in vivo; details: 300 mg/kg daily, 42 consecutive days
From the text: The general, long-term toxicity of 5-MOP was also investigated in rabbits treated by ingestion and dermal application, with the following results: […]

[5] = system: plasma melatonin; assay: Plasma melatonin in psychiatric patients and control subjects after a single oral dose of 5-MOP; type: in vivo, human; details: for Delta Melatonin: 11:00 p.m. minus 8:00 p.m. baseline, 40 mg oral; for Melatonin (11:00 p.m.): 3 h after 40 mg oral 5-MOP, mean ± SEM
Protocol: FIG. 1 is a bar histogram which depicts the plasma melatonin levels in six diverse groups of human subjects before and after treatment with a single dose of 40 mg 5-methoxypsoralen (5-MOP) administered orally to each subject at 8:00 p.m. The subjects were maintained in total darkness or under weak illumination (without UV) for at least 9 hours after 5-MOP intake (corresponding to the sleep period). Blood samples were taken at 8:00 p.m. prior to 5-MOP administration and at 11:00 p.m. (see text for full description of experimental details). Plasma melatonin levels were evaluated by radioimmunology after extraction in diethylether using the method of Treifenaueret, Andres. Melatonin levels were established and compared with each group of subjects with similar age means using paired t-tests and between groups using unpaired t-tests. " -melatonin is defined as the difference between plasma melatonin levels (nmd/1) after 5-MOP uptake (3 hours after administration and =before 5-MOP administration; =after 5-MOP uptake. (p=significance of difference between the two values. )
The experiment was performed on six groups of human subjects.
Control groups 1, 2 and 3 comprised respectively:
Group 1: 13 elderly, sane subjects (7 women, 6 men).
Group 2: 13 middle-aged, sane subjects (6 women, 7 men).
Group 3: 13 young, sane subjects (6 women, 7 men).
These subjects had been contacted for welfare or minor nervous problems, but were free from major psychiatric disorders or organic illnesses. Most aged subjects were waiting for admission to nursing homes.
These elderly patients had no major cardiac, hepatic, renal, endocrineous or osseous disorders, nor any evolutionary pathology.
Group 5 comprised 13 subjects (8 women, 5 men) in an acute depressive phase, showing all symptoms of a major depressive disorder in the sense of DSM III.
Group 6 comprised 13 schizophrenic subjects (6 women, 7 men), according to DSM III criteria.
The diagnosis was established by means of a structured examination for affective disorders, schizophrenia and dementia, performed on each patient by two different psychiatrists. Any patient with a history of serious attendant illnesses, such as high blood pressure, diabetes, or other endocrineous pathologies, with distorted clinical or biological results, were excluded from the study. The patients received no medicaments 4 days prior to the experiment, except for 5 mg nitrazepam or 0.25 mg trazolam in the evening. All subjects participated voluntarily in the experiment and 5 were advised of its purpose. A single dose of 40 mg 5-methoxypsoralen (5-MOP) was given orally to all subjects at 8:00 p.m. To avoid any photosensitivity effects due to psoralen, patients were maintained in total darkness or under weak illumination (without UV) for at least 9 hours after 5-MOP intake (corresponding to the sleep period).
Blood samples were taken at 8:00 p.m., prior to 5-MOP administration, and again at 11:00 p.m., by means of a stationary catheter attached to the forearm at least twenty minutes before extraction of the first blood sample. Samples were immediately centrifugated at 4° C. and refrigerated at -20° C. until quantitative analysis. Plasma levels were evaluated by radioimmunology after extraction in diethylether, using the #method of Treifenaueret, Andres.
Melatonin levels were established and compared within each group by means of paired t-tests, and between groups by unpaired t-tests.
Because age could influence endocrinous responses, only groups with similar age means were compared in these experiments.
" melatonin" has been defined as the difference between melatonin levels after 5-MOP intake and the corresponding baseline values. The parameter "p" measures the significance of the difference between two values.

## COc1c2ccoc2cc2oc(=O)ccc12 [5-MOP, 4-methoxy-7H-furo[3,2-g][1]benzopyran-7-one]
[1]; mouse, male mice
  LD50 at 336 h: 8100 mg/kg
[1]; rat, male rats
  LD50 at 336 h: > 30000 mg/kg
[2]; 40 mg daily oral, one week
  side effects: no patient treated with 5-MOP suffered side effects
[2]; 5-MOP composition compared with tricyclics
  treatment period to obtain the same improvement in behavior: one
[2]; 17 HDRS items, 40 mg daily oral 9:00 p.m., one week, n=12, HDRS J0 21.92 ± 8.21, W 3.5, p 0.01, placebo J7 21.16 ± 5.02
  HDRS J7: 16.67 ± 7.99
[2]; after a week of treatment, 40 mg daily oral, vs placebo
  improvement of depressive state (in words): significant improvement; also recorded: rapid improvement from depression; also recorded: significantly improves the depressive state
[2]; without irradiation of patients by UVA
  effect without UVA irradiation: full effect
[3]; humans, acute effect
  retinal sensitivity to light: increases
[3]; humans, sane subjects, earlier reports
  plasma melatonin levels / melatonin secretion (in words): increased melatonin secretion; also recorded: increases in plasma melatonin levels
[3]; perfectly sane human subjects
  effect on other endocrine hormones: no discernible effect
[4]
  tolerance in toxicological tests (general condition, hematological, anatomicopathological, skin and eye, clinical chemolysis): good tolerance
[5]; Control 1 (elderly sane)
  Delta Melatonin: 0.22 ± 0.11 nmd/1
[5]; Control 1 (elderly sane, n=13), baseline 8:00 p.m. 0.19 ± 0.05
  Melatonin (11:00 p.m.): 0.42 ± 0.12 nmd/1
[5]; Control 2 (middle-aged sane)
  Delta Melatonin: 0.20 ± 0.08 nmd/1
[5]; Control 2 (middle-aged sane, n=13), baseline 8:00 p.m. 0.16 ± 0.04
  Melatonin (11:00 p.m.): 0.36 ± 0.09 nmd/1
[5]; Control 3 (young sane)
  Delta Melatonin: 0.21 ± 0.09 nmd/1
[5]; Control 3 (young sane, n=13), baseline 8:00 p.m. 0.16 ± 0.05
  Melatonin (11:00 p.m.): 0.36 ± 0.11 nmd/1
[5]; at the dosage used (40 mg)
  correlation between melatonin levels and absolute 5-MOP content: No correlation was observed
[5]; control groups, vs before intake, t=4.59, p<0.01, t=4.18, p<0.001, t<3.92, p<0.001
  melatonin levels after 5-MOP intake (in words): substantially higher
[5]; dements (n=13), baseline 8:00 p.m. 0.21 ± 0.06, t=3.34, p<0.01
  Melatonin (11:00 p.m.): 0.30 ± 0.08 nmd/1
[5]; dements vs elderly control group, r=2.4, p<0.03
  mean delta melatonin vs control group (in words): substantially lower
[5]; dements, vs Control 1 t/p 2.4/0.025
  Delta Melatonin: 0.09 ± 0.06 nmd/1
[5]; depressives (n=13), baseline 8:00 p.m. 0.22 ± 0.06, t=2.29, p<0.05
  Melatonin (11:00 p.m.): 0.39 ± 0.15 nmd/1
[5]; depressives vs control group, r=0.59, p<0.05, not significant
  mean delta melatonin vs control group (in words): slightly lower
[5]; depressives, vs Control 2 t/p 0.59/0.562
  Delta Melatonin: 0.17 ± 0.09 nmd/1
[5]; psychiatric subjects
  plasma melatonin levels after administration (in words): significant rise; also recorded: significant increase
[5]; schizophrenics (n=13), baseline 8:00 p.m. 0.21 ± 0.09, t=8.31, p<0.0001
  Melatonin (11:00 p.m.): 0.48 ± 0.09 nmd/1
[5]; schizophrenics, vs Control 3 t/p 0.58/0.567
  Delta Melatonin: 0.15 ± 0.05 nmd/1
[5]; single 40 mg oral dose, all groups
  side-effects: No patient exhibited side-effects

## COc1c2occc2cc2ccc(=O)oc12 [8-methoxypsoralen, reference compound]
[1]; mouse, male mice
  LD50 at 336 h: 875 mg/kg
[1]; rat, male rats
  LD50 at 336 h: 4400 mg/kg
